Results as given in US20230270113A1, “FUNGICIDAL MIXTURES” (Adama Makhteshim Ltd., priority 2020, published 2023).
Read-outs that look alike come from different tables or passages of the source.

Experiments:
Assay type in all cases: in vivo
Venturia inaequalis [1] = experiment: Example A: greenhouse control of apple scab, phthalimides with DMI and/or fluopyram; details: for % control observed on leaves 26 DAYS after the application / % control observed on leaves 19 DAYS after the application: captan or folpet 1200, difenoconazole 75, tebuconazole 150, fluopyram 150 gAI/ha; for Var % (19/26 DAYS): change of % control from 19 to 26 days
Venturia inaequalis [2] = experiment: Example 1b: greenhouse control of apple scab, reduced rates of phthalimides and difenoconazole; details: for % control observed on leaves 26 DAYS after the application / % control observed on leaves 19 DAYS after the application: captan or folpet 900, difenoconazole 35, tebuconazole 150, fluopyram 150 gAI/ha; for Var % (19/26 DAYS): change of % control from 19 to 26 days
[3] = test system: Zymoseptoria tritici Tri-R6 strain; details: for effect of FOLPET on the efficacy of the systemic product, treated area / effect of FOLPET on the efficacy of the systemic product, untreated area / effect of FOLPET on the efficacy of the systemic product, treated and untreated areas: with FOLPET vs use alone; for effect of FOLPET on the efficacy of the systemic product, treated and untreated areas: 21 and 28 days
Erysiphe necator = experiment: Example 9: greenhouse control of Erysiphe necator in grape plants
Procedure: • An experiment was conducted in controlled conditions under a greenhouse to evaluate the fungicidal activity of the mixture comprising (1) phthalimide fungicide (folpet, captan) and (2) demethylation inhibitor fungicide (difenoconazole) or a quinone outside inhibitors (azoxystrobin, pyraclostrobin), toward Erysiphe necator in grape plants, variety Barbera. In addition, the activity of phthalimide with two fungicides (A); demethylation inhibitor fungicide (difenoconazole) or a quinone outside inhibitors (azoxystrobin, pyraclostrobin and dehydrogenase inhibitor fungicide (fluxapyroxad) was also tested. • The experiment was conducted by applying compositions of fluxapyroxad, difenoconazole (Score® 10 WG), azoxystrobin (Ortiva®), pyraclostrobin (Cabrio® EC) and folpet (Folpan 80 WDG®) alone or together. The compositions were diluted with water. Water amount used was equivalent to 800 L/ha. Application was performed in an automatic spraying cabin equipped with 2 flatfan AI11003VS nozzles. • Treatments: • Folpet 1000 gr (A.I.)/ha • Fluxapyroxad 45 gr (A.I.)/ha • Difenoconazole 37.5 gr (A.I.)/ha • Difenoconazole 37.5 gr (A.I.)/ha+folpet 1000 gr (A.I.)/ha • Azoxystrobin 90 gr (A.I.)/ha • Azoxystrobin 90 gr (A.I.)/ha+folpet 1000 gr (A.I.)/ha • Pyraclostrobin 75 gr (A.I.)/ha • Pyraclostrobin 75 gr (A.I.)/ha+folpet 1000 gr (A.I.)/ha • Fluxapyroxad 45 gr (A.I.)/ha+Difenoconazole 37.5 gr (A.I.)/ha • Fluxapyroxad 45 gr (A.I.)/ha+Difenoconazole 37.5 gr (A.I.)/ha+folpet 1000 gr (A.I.)/ha • Azoxystrobin 90 gr (A.I.)/ha+Fluxapyroxad 45 gr (A.I.)/ha • Azoxystrobin 90 gr (A.I.)/ha+Fluxapyroxad 45 gr (A.I.)/ha+folpet 1000 gr (A.I.)/ha • Azoxystrobin 90 gr (A.I.)/ha+Difenoconazole 37.5 gr (A.I.)/ha • Azoxystrobin 90 gr (A.I.)/ha+Difenoconazole 37.5 gr (A.I.)/ha+folpet 1000 gr (A.I.)/ha • Pyraclostrobin 75 gr (A.I.)/ha+Fluxapyroxad 45 gr (A.I.)/ha • Pyraclostrobin 75 gr (A.I.)/ha+Fluxapyroxad 45 gr (A.I.)/ha+folpet 1000 gr (A.I.)/ha • Pyraclostrobin 75 gr (A.I.)/ha+Difenoconazole 37.5 gr (A.I.)/ha • Pyraclostrobin 75 gr (A.I.)/ha+Difenoconazole 37.5 gr (A.I.)/ha+folpet 1000 gr (A.I.)/ha • To test for fungicidal control of Erysiphe necator, the grape plants were sprayed with each of the above treatments. Each of the above treatments was applied from 4 to 10 times according to the disease development, applications occurring 7-14 days after the previous treatment. The treatments were composed of 4 replicates. • Evaluations were performed for the whole duration of the experiment. At each time the incidence and the severity of Erysiphe necator on plants parts was determined.

Alternaria solani [4] = experiment: Example 4: greenhouse control of Alternaria solani in tomato seedlings, phthalimides with DMI and/or fluxapyroxad; details: Table 9; captan or folpet 1200, difenoconazole 75, tebuconazole 150, fluxapyroxad 75 gAI/ha; one spray 1 day before inoculation
Sphaerotheca fuliginea = experiment: Example 10: greenhouse control of Sphaerotheca fuliginea on melon plants
Botrytis cinerea = experiment: Example 11: greenhouse control of Botrytis cinerea in strawberry
Plasmopara viticola = experiment: Example 7: greenhouse control of Plasmopara viticola in grape plants, folpet with partners
Phytophthora infestans = details: tomato
Alternaria solani [5] = experiment: Example 6b: greenhouse control of Alternaria solani in potato plants
Alternaria solani [6] = experiment: Example 5: greenhouse control of Alternaria solani in tomato, phthalimides with azoxystrobin and/or fluxapyroxad
Venturia inaequalis [7] = experiment: Example 2: greenhouse control of apple scab, phthalimides with cyprodinil and/or fluxapyroxad; details: Table 6; captan or folpet 1200, cyprodinil 300, fluxapyroxad 90 gAI/ha; one spray 1 day before inoculation
[8] = Table 2, one spray 1 day before inoculation, severity based
[9] = Table 4, one spray 1 day before inoculation

O=C(NCCc1ncc(C(F)(F)F)cc1Cl)c1ccccc1C(F)(F)F [FLUOPYRAM, fluopyram]
% control observed on leaves 26 DAYS after the application (Venturia inaequalis [1]; [8]): 75.3%
% control observed on leaves 19 DAYS after the application (Venturia inaequalis [1]; Table 3): 83.9%
% control observed on leaves 26 DAYS after the application (Venturia inaequalis [1]; Table 3): 75.3%
Var % (19/26 DAYS) (Venturia inaequalis [1]; Table 3): −10.3%
% control observed on leaves 26 DAYS after the application (Venturia inaequalis [2]; [9]): 76.2%
% control observed on leaves 19 DAYS after the application (Venturia inaequalis [2]; Table 5): 85.1%
% control observed on leaves 26 DAYS after the application (Venturia inaequalis [2]; Table 5): 76.2%
Var % (19/26 DAYS) (Venturia inaequalis [2]; Table 5): −10.5%
effect of FOLPET on the efficacy of the systemic product, treated area [3]: efficacy gains
effect of FOLPET on the efficacy of the systemic product, untreated area [3]: not statistically significant

CC1COC(Cn2cncn2)(c2ccc(Oc3ccc(Cl)cc3)cc2Cl)O1 (stereo not drawn) [DIFENOCONAZOLE, difenoconazole]
% control observed on leaves 21 DAYS after the application (Erysiphe necator; rate 37.5 gr (A.I.)/ha): 68.9%
% control observed on leaves 20 DAYS after the application (Alternaria solani [4]): 60.6%
% control observed on leaves 26 DAYS after the application (Venturia inaequalis [1]; [8]): 71.8%
% control observed on leaves 19 DAYS after the application (Venturia inaequalis [1]; Table 3): 77.9%
% control observed on leaves 26 DAYS after the application (Venturia inaequalis [1]; Table 3): 71.8%
Var % (19/26 DAYS) (Venturia inaequalis [1]; Table 3): −7.8%
% control observed on leaves 21 DAYS after the application (Sphaerotheca fuliginea; rate 50 gr (A.I.)/ha): 49.4%
% control observed on leaves 26 DAYS after the application (Venturia inaequalis [2]; [9]): 73.1%
% control observed on leaves 19 DAYS after the application (Venturia inaequalis [2]; Table 5): 79.5%
% control observed on leaves 26 DAYS after the application (Venturia inaequalis [2]; Table 5): 73.1%
Var % (19/26 DAYS) (Venturia inaequalis [2]; Table 5): −8.1%

Cc1cc(OC(C)C)ccc1C(=O)C(C)(C)NC(=O)c1sccc1C [ISOFETAMID]
% control observed on leaves 21 DAYS after the application (Botrytis cinerea; rate 400 gr (A.I.)/ha): 74.0%

COC(=O)N(OC)c1ccccc1COc1ccn(-c2ccc(Cl)cc2)n1 [PYRACLOSTROBIN]
% control observed on leaves 21 DAYS after the application (Botrytis cinerea; rate 75 gr (A.I.)/ha): 66.7%
% control observed on leaves 21 DAYS after the application (Erysiphe necator; rate 75 gr (A.I.)/ha): 70.7%
% control observed on leaves 21 DAYS after the application (Sphaerotheca fuliginea; rate 100 gr (A.I.)/ha): 60.1%

CC(C)CC(C)c1sccc1NC(=O)c1cn(C)nc1C(F)(F)F (stereo not drawn) [PENTHIOPYRAD, penthiopyrad]
effect of FOLPET on the efficacy of the systemic product, treated and untreated areas [3]: a significant effect was observed only for the 28-day timing

CCC(C)(NC(=O)c1cc(Cl)c(C)c(Cl)c1)C(=O)CCl (stereo not drawn) [ZOXAMIDE]
% control observed on leaves 21 DAYS after the application (Plasmopara viticola; rate 135.0 gr (A.I.)/ha): 74.7%
% control observed on leaves 14 DAYS after the application (Phytophthora infestans; rate 180 gr (A.I.)/ha): 74.4%
% control observed on leaves 21 DAYS after the application (Alternaria solani [5]; rate 180 gr (A.I.)/ha): 62.9%

Cc1cc(C2CC2)nc(Nc2ccccc2)n1 [CYPRODNIL]
% control observed on leaves 21 DAYS after the application (Botrytis cinerea; rate 150 gr (A.I.)/ha): 51.8%

CC1(C(=O)Nc2ccc(O)c(Cl)c2Cl)CCCCC1 [FENHEXAMID]
% control observed on leaves 21 DAYS after the application (Botrytis cinerea; rate 500 gr (A.I.)/ha): 74.2%

CCCCCCCCc1c(CC)nc2ncnn2c1N [AMETOCRADIN]
% control observed on leaves 21 DAYS after the application (Plasmopara viticola; rate 225.0 gr (A.I.)/ha): 78.8%
% control observed on leaves 14 DAYS after the application (Phytophthora infestans; rate 240 gr (A.I.)/ha): 68.0%
% control observed on leaves 21 DAYS after the application (Alternaria solani [5]; rate 240 gr (A.I.)/ha): 62.0%

Cc1cc(C(F)(F)F)nn1CC(=O)N1CCC(c2nc(C3=NOC(c4c(F)cccc4F)C3)cs2)CC1 (stereo not drawn) [OXATHIAPIPROLIN]
% control observed on leaves 21 DAYS after the application (Plasmopara viticola; rate 22.5 gr (A.I.)/ha): 86.7%
% control observed on leaves 14 DAYS after the application (Phytophthora infestans; rate 15 gr (A.I.)/ha): 78.6%
% control observed on leaves 21 DAYS after the application (Alternaria solani [5]; rate 15 gr (A.I.)/ha): 63.6%

CCCN(CCOc1c(Cl)cc(Cl)cc1Cl)C(=O)n1ccnc1 [PROCHLORAZ, prochloraz]
effect of FOLPET on the efficacy of the systemic product, treated area [3]: numerically appreciated but not significantly improved
effect of FOLPET on the efficacy of the systemic product, untreated area [3]: significant positive effect

N#Cc1c[nH]cc1-c1cccc2c1OC(F)(F)O2 [FLUDIOXONIL]
% control observed on leaves 21 DAYS after the application (Botrytis cinerea; rate 150 gr (A.I.)/ha): 40.8%

C#CCOc1ccc(CCNC(=O)C(OCC#C)c2ccc(Cl)cc2)cc1OC (stereo not drawn) [MANDIPROPAMIDE]
% control observed on leaves 21 DAYS after the application (Plasmopara viticola; rate 112.5 gr (A.I.)/ha): 74.1%
% control observed on leaves 14 DAYS after the application (Phytophthora infestans; rate 150 gr (A.I.)/ha): 65.7%
% control observed on leaves 21 DAYS after the application (Alternaria solani [5]; rate 150 gr (A.I.)/ha): 62.5%

CC(C)(C)C(O)(CCc1ccc(Cl)cc1)Cn1cncn1 (stereo not drawn) [TEBUCONAZOLE, tebuconazole]
% control observed on leaves 20 DAYS after the application (Alternaria solani [4]): 64.3%
% control observed on leaves 26 DAYS after the application (Venturia inaequalis [1]; [8]): 77.4%
% control observed on leaves 19 DAYS after the application (Venturia inaequalis [1]; Table 3): 82.5%
% control observed on leaves 26 DAYS after the application (Venturia inaequalis [1]; Table 3): 77.4%
Var % (19/26 DAYS) (Venturia inaequalis [1]; Table 3): −6.2%
% control observed on leaves 26 DAYS after the application (Venturia inaequalis [2]; [9]): 78.2%
% control observed on leaves 19 DAYS after the application (Venturia inaequalis [2]; Table 5): 83.8%
% control observed on leaves 26 DAYS after the application (Venturia inaequalis [2]; Table 5): 78.2%
Var % (19/26 DAYS) (Venturia inaequalis [2]; Table 5): −6.7%

O=[N+]([O-])c1cc(C(F)(F)F)c(Cl)c([N+](=O)[O-])c1Nc1ncc(C(F)(F)F)cc1Cl [FLUAZINAM]
% control observed on leaves 21 DAYS after the application (Botrytis cinerea; rate 500 gr (A.I.)/ha): 68.5%

Cn1cc(C(=O)Nc2ccc(F)cc2-c2ccc(Cl)c(Cl)c2)c(C(F)F)n1 [BIXAFEN, bixafen]
effect of FOLPET on the efficacy of the systemic product, treated and untreated areas [3]: greatly improved efficacy
protection of the untreated area by the formulation alone ([3]; without FOLPET): incapable of protecting the areas not treated

CO/C=C(/C(=O)OC)c1ccccc1Oc1cc(Oc2ccccc2C#N)ncn1 [AZOXYSTROBIN, azoxystrobin]
% control observed on leaves 21 DAYS after the application (Erysiphe necator; rate 90 gr (A.I.)/ha): 65.9%
% control observed on leaves 20 DAYS after the application (Alternaria solani [6]; Table 10, captan or folpet 1200, azoxystrobin 120, fluxapyroxad 75 gAI/ha, one spray 1 day before inoculation): 51.4%
% control observed on leaves 14 DAYS after the application (Alternaria solani [6]; rate 120 gAI/ha, tomato): 71%
% control observed on leaves 20 DAYS after the application (Alternaria solani [6]; rate 120 gAI/ha, tomato): 51.4%
Var % (14/20 DAYS) (Alternaria solani [6]; rate 120 gAI/ha, tomato): −27.6%
% control observed on leaves 21 DAYS after the application (Sphaerotheca fuliginea; rate 250 gr (A.I.)/ha): 51.0%

Cc1cc(C2CC2)nc(Nc2ccccc2)n1 [CYPRODINIL, cyprodinil]
% control observed on leaves 26 DAYS after the application (Venturia inaequalis [7]): 62.7%

CCNC(=O)NC(=O)/C(C#N)=N/OC [CYMOXANIL]
% control observed on leaves 21 DAYS after the application (Plasmopara viticola; rate 126.0 gr (A.I.)/ha): 73.6%
% control observed on leaves 14 DAYS after the application (Phytophthora infestans; rate 150 gr (A.I.)/ha): 68.5%
% control observed on leaves 21 DAYS after the application (Alternaria solani [5]; rate 150 gr (A.I.)/ha): 68.4%

O=C(NCc1ncc(C(F)(F)F)cc1Cl)c1c(Cl)cccc1Cl [FLUOPICOLIDE]
% control observed on leaves 21 DAYS after the application (Plasmopara viticola; rate 75.0 gr (A.I.)/ha): 74.5%
